Measurements reported in patent US20120252730A1, “PLATELET AGGREGATION INHIBITORS” (UNIVERSITY OF CHICAGO, priority 2009, published 2012).
Ends that are not written are not given here.

Legend:
BHK 21 cells = experiment: Ac-GXGDSC peptide array cell adhesion, BHK 21 cells; assay type: cell-based
CHO-K1 cells = experiment: Ac-GXGDSC peptide array cell adhesion, CHO K1 cells; assay type: cell-based
Protocol: Cysteine-terminated peptides were immobilized onto maleimide-presenting SAMs by adding 40 μL of 1 mM peptide solution to the biochip and incubating at 37° C. for 1 hour. Substrates were rinsed with DIUF water and ethanol and dried under a stream of nitrogen. αIIbβ3 CHO K1 cells were detached from culture plates with 1 mM EGTA/2 mM EDTA in PBS (phosphate-buffered saline), rinsed with serum-free F-12K medium, centrifuged and resuspended in serum-free F-12K medium supplemented with cRGDFG (SEQ ID NO: 12) (300 μM) and 1× penicillin/streptomycin. After 15-minute of incubation, cells (200,000/mL) were added to substrates in 24-well culture plates. After 2 hour incubation at 37° C. and 5% CO2, media was exchanged for F-12K medium supplemented with 10% FBS, 1× penicillin/streptomycin and cRGDFG (SEQ ID NO: 12) (300 μM). After 2 hours, the substrates were washed gently with warm PBS, and adherent cells were immediately fixed with 4% formaldehyde for 30 minutes, visualized with a 20× objective of a Zeiss Axiovert 200 inverted microscope, and photographed. […] The number of adherent cells per field of view was counted using Image J software. Cells were counted in at least three fields for each circle, and each experiment was repeated 3 times. […]

αIIbβ3 CHO K1 cells [1] = experiment: Ac-GXGDSC peptide array cell adhesion, αIIbβ3 CHO K1 cells; assay type: cell-based, human; settings: 0.5% peptide spots; 300 μM cRGDFG
Protocol: Cysteine-terminated peptides were immobilized onto maleimide-presenting SAMs by adding 40 μL of 1 mM peptide solution to the biochip and incubating at 37° C. for 1 hour. Substrates were rinsed with DIUF water and ethanol and dried under a stream of nitrogen. αIIbβ3 CHO K1 cells were detached from culture plates with 1 mM EGTA/2 mM EDTA in PBS (phosphate-buffered saline), rinsed with serum-free F-12K medium, centrifuged and resuspended in serum-free F-12K medium supplemented with cRGDFG (SEQ ID NO: 12) (300 μM) and 1× penicillin/streptomycin. After 15-minute of incubation, cells (200,000/mL) were added to substrates in 24-well culture plates. After 2 hour incubation at 37° C. and 5% CO2, media was exchanged for F-12K medium supplemented with 10% FBS, 1× penicillin/streptomycin and cRGDFG (SEQ ID NO: 12) (300 μM). After 2 hours, the substrates were washed gently with warm PBS, and adherent cells were immediately fixed with 4% formaldehyde for 30 minutes, visualized with a 20× objective of a Zeiss Axiovert 200 inverted microscope, and photographed. For cell adhesion assays mediated by Ac-GXGDSC (SEQ ID NO: 26), αIIbβ3 CHO K1 cells were incubated on a 5×4 circle (1 mm diameter) array for 1 hour with serum-free F-12K medium supplemented with cRGDFG (SEQ ID NO: 12) (300 μM) and 1× penicillin/streptomycin, followed by media exchange to F-12K medium supplemented with 10% FBS, 1× penicillin/streptomycin and cRGDFG (SEQ ID NO: 12) (300 μM. The substrates were washed with warm PBS, and adherent cells were immediately fixed and permeabilized with 4% formaldehyde and 0.5% Triton-X for 30 minutes. Fixed cells were stained with DAPI, visualized and photographed with a 20× objective as described. The number of adherent cells per field of view was counted using Image J software. Cells were counted in at least three fields for each circle, and each experiment was repeated 3 times. The degree of adhesion is reported as a percentage of cells that adhere relative to control experiments with the peptide Ac-GRGDSC (SEQ ID NO: 28).
To further assay the binding of peptide ligands to the […] integrin for XGD peptide ligands, an array was used to assess the adhesion of cells to peptides having the arginine residue substituted with each amino acid other than cysteine (e.g., A, D, E, F, G, H, I, K, L, M, N, P, Q, R, S, T, V, W, and Y). The library of Ac-GXGDSC (SEQ ID NO: 26) peptides was synthesized and immobilized in an array with each peptide occupying a 1 mm diameter region of the monolayer (FIG. 61). A suspension of αIIbβ3 CHO K1 cells was applied to the entire array and cells were allowed to attach to regions presenting the various peptides. The substrates were then rinsed and stained with DAPI, and the cells were counted to determine the relative efficiency of cell attachment to peptides in the library. […] Substitution with leucine and isoleucine were also active, though at a lower level.

HT1080 cells = experiment: Ac-GXGDSC peptide array cell adhesion, HT1080 cells; assay type: cell-based
αIIbβ3 CHO K1 cells [2] = experiment: Cell adhesion assay: αIIbβ3 CHO K1 cells on SAMs presenting immobilized peptides; assay type: cell-based, human; settings: 0.5% peptide SAM; in presence of 300 μM cRGDFG
αIIbβ3 CHO K1 cells [3] = experiment: Immunostaining of cytoskeletal structure of αIIbβ3 CHO K1 cells adherent to model substrates; assay type: cell-based, human; settings: monolayers presenting the peptide; four hours; anti-vinculin, phalloidin, DAPI
Source text: αIIbβ3 CHO K1 cells were allowed to adhere and spread on substrates as described above. Substrates were washed gently with PBS, and fixed and permeabilized as described above. Cells were stained with monoclonal anti-vinculin IgG to visualize focal adhesions, phalloidin to visualize stress fibers and DAPI to visualize the nucleus. Substrates were rinsed thoroughly with PBS and mounted on microscope slides with Aqua Poly/Mount (PolySciences Inc.). Substrates were visualized with a 100× objective of a Zeiss Axiovert 200 inverted microscope, and photographed.
The assembly of focal adhesion and actin stress fibers of αIIbβ3 CHO K1 cells adhered to monolayers presenting GRGDSC (SEQ ID NO: 11), HHLGGAKQAGDVC (SEQ ID NO: 21) a mixture of both peptides, and adsorbed Fbg (FIGS. 3, E, F, G and H respectively) was compared. The αIIbβ3 CHO K1 cells were allowed to attach and spread on the monolayers for four hours, and then fixed the cells and probed with anti-vinculin IgG to visualize focal adhesions and with phalloidin-AF 488 to visualize actin stress fibers.

αIIbβ3 = molecular target: T1, αIIbβ3 (Homo sapiens, UniProt P05106+P08514); settings: cited from earlier work
T1 construct: host or cells: platelets

platelets [4] = settings: cited from earlier work
platelets [5] = settings: cited from earlier work; remark: listed apart in the source
αIIbβ3 CHO K1 cells [6] = experiment: Blocking of αIIbβ3 CHO K1 cell adhesion to GRGDSC monolayer; assay type: cell-based, human; settings: 300 μM
Source text: (§1) FIG. 2 depicts the results of FACS analyses and binding studies of a αIIbβ3 expressing CHO K1 cell line. […] Transfected αIIbβ3 CHO K1 cells express αIIbβ3 at the cell surface, as detected by anti-β3 and PAC-1 antibody (bottom) (the middle and right hand lanes show anti-β3 antibody and PAC-1 antibody binding, respectively). Panel B is a graph of the concentration of cRGDFG (SEQ ID NO: 12; where F is a D amino acid) versus adhesion of αIIbβ3 CHO K1 cells. The peptide cRGDFG (SEQ ID NO: 12), a cyclic peptide that specifically binds to α5 and αV integrins, inhibits CHO K1 cell adhesion to 0.5% GRGDSC (SEQ ID NO: 11) SAMs. Panels C-F are photomicrographs of cells adhering to GRGDSC (SEQ ID NO: 11).
(§2) CHO K1 cells were used that were transfected with the αIIbβ3 receptor, as described previously (Salsmann et al., 2005). Cells were transfected with pcDNA3.1 vectors that coded for αIIb and β3 using FuGENE6 and analyzed by FACS after labeling with the PAC-1 (anti-αIIbβ3) and H-96 (anti-β3) antibodies. Approximately 30% of the cells expressed the receptor (FIG. 2A). Because the CHO K1 cells also express αv and α5 integrins on their surfaces, adhesion experiments were performed in the presence of the cyclic peptide cRGDFG (SEQ ID NO: 12), where F is a D amino acid. […] All experiments that follow, unless stated otherwise, were performed in the presence of 300 μM cRGDFG (SEQ ID NO: 12).

CHO K1 cells = experiment: Blocking of CHO K1 cell attachment to GRGDSC monolayer; assay type: cell-based; settings: 300 μM
Source text: as §1, §2

αvβ3 = αvβ3 (Homo sapiens, UniProt P05106+P06756); settings: cited from earlier work
αvβ3, sequence (P06756 31-889 limits assumed): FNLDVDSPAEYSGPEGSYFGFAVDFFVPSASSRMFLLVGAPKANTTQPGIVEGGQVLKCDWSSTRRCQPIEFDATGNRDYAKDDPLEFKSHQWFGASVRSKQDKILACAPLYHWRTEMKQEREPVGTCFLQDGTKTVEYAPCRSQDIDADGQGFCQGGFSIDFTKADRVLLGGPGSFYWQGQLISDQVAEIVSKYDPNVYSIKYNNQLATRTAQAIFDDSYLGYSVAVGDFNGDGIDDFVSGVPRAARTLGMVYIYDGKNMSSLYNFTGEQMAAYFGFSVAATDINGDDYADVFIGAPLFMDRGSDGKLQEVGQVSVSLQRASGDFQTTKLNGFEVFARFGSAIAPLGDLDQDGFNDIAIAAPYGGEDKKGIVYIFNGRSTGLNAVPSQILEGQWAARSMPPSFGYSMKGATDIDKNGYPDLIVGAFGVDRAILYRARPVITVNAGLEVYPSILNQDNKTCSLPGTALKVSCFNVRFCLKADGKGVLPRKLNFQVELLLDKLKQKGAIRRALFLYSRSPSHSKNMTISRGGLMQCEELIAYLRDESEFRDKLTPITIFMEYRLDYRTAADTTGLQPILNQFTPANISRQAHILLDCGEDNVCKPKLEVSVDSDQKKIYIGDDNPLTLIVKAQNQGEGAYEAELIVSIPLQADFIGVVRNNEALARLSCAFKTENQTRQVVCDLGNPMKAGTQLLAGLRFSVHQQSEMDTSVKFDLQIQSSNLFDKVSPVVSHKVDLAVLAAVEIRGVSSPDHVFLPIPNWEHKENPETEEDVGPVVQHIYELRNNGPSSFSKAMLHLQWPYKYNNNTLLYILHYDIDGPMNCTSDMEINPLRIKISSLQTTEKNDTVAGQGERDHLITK
αvβ3, sequence (P06756 891-1048 partner limits assumed): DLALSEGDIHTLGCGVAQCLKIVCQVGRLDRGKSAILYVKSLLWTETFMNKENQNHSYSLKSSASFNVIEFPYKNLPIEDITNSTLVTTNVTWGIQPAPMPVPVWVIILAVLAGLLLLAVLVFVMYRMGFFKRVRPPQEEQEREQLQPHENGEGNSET
αvβ3, sequence (P05106 27-788): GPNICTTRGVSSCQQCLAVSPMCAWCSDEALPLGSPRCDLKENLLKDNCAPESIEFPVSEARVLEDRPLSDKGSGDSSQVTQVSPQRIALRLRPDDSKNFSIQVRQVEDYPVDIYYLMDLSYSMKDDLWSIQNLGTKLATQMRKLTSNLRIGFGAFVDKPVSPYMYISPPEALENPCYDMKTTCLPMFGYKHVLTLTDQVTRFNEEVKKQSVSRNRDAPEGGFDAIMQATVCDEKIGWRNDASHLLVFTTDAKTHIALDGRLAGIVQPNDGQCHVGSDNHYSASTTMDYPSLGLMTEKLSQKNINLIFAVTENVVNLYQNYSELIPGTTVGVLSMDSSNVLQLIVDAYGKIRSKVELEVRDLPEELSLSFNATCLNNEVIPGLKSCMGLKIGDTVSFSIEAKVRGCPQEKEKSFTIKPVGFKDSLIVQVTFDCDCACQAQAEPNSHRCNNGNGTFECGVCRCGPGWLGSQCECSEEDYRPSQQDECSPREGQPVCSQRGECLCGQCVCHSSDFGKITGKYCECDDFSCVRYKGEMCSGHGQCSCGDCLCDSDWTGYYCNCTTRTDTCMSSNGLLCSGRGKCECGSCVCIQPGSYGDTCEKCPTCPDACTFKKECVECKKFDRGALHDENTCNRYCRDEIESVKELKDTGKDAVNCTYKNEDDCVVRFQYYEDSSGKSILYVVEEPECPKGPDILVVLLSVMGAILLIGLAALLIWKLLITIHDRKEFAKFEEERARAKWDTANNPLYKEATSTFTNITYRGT

## Ac-GRGDSC (Ac-GRGDSC-NH2)
BHK 21 cells
  cell adhesion on Ac-GXGDSC array: promoted significant cell adhesion
CHO-K1 cells
  cell adhesion on Ac-GXGDSC array: promoted significant cell adhesion
αIIbβ3 CHO K1 cells [1]
  cell adhesion on Ac-GXGDSC array relative to Ac-GRGDSC: mediated αIIbβ3 CHO K1 cell adhesion
HT1080 cells
  cell adhesion on Ac-GXGDSC array: promoted significant cell adhesion

## GRGDSC (GRGDSC-NH2) [Cys-terminated fibrinogen RGD peptide immobilized on monolayer]
αIIbβ3 CHO K1 cells [2]
  adhesion of αIIbβ3 CHO K1 cells to monolayer presenting the peptide: adhered
αIIbβ3 CHO K1 cells [3]
  cytoskeletal structure and focal adhesions of adherent cells: well-developed cytoskeletal structures and mature focal adhesions along the perimeter

## HHLGGAKQAGDVC (HHLGGAKQAGDVC-NH2) [Cys-terminated fibrinogen γ chain peptide immobilized on monolayer]
αIIbβ3 CHO K1 cells [2]
  adhesion of αIIbβ3 CHO K1 cells to monolayer presenting the peptide: adhered
αIIbβ3 CHO K1 cells [3]
  cytoskeletal structure and focal adhesions of adherent cells: well-developed cytoskeletal structures and mature focal adhesions along the perimeter

## LGGAKQAGDV (not fully specified (C-terminus)) [γ-derived peptide]
αIIbβ3; compared with its inhibition of Fbg binding / RGDS
  less potent in inhibiting PAC-1 binding to αIIbβ3: 2.5 fold
Platelets [4]
  inhibition of Fbg binding to platelets: inhibited Fbg binding to platelets with an affinity comparable to that of RGDS
Platelets [5]
  inhibition of A2A9 binding to platelets: could inhibit the binding of A2A9 to platelets

## RGD
Platelets [5]
  inhibition of A2A9 binding to platelets: not

## RGDS (synthesized peptide inhibitor)
αIIbβ3
  inhibition of PAC-1 binding: blocked the binding of both PAC-1 and Fbg to platelets with equal potency
Platelets [4]
  inhibition of Fbg binding to platelets: blocked the binding of both PAC-1 and Fbg to platelets with equal potency

## cRGDFG
αIIbβ3 CHO K1 cells [6]
  effect on adhesion of αIIbβ3 CHO K1 cells to monolayer presenting GRGDSC: did not interfere with adhesion
CHO K1 cells
  block of attachment of CHO K1 cells to monolayer presenting GRGDSC: could efficiently block the attachment
αvβ3
  IC50: 1.6 nM
  affinity for αvβ3 relative to αIIbβ3 integrin: approximately 1,400 fold
